Where two headings read alike, the source gives them in different places. Marks after values point to notes of the source that are not given here.
What was measured:
[1] = target: T1, CYP2A13 (Homo sapiens, UniProt Q16696); test: Inhibition of CYP2A13-mediated coumarin 7-hydroxylation, enzymatic reconstitution assay; type: biochemical; conditions: for Ki: coumarin 0–40 µM
T1 construct: made in house
T1 sequence (Q16696 1-494): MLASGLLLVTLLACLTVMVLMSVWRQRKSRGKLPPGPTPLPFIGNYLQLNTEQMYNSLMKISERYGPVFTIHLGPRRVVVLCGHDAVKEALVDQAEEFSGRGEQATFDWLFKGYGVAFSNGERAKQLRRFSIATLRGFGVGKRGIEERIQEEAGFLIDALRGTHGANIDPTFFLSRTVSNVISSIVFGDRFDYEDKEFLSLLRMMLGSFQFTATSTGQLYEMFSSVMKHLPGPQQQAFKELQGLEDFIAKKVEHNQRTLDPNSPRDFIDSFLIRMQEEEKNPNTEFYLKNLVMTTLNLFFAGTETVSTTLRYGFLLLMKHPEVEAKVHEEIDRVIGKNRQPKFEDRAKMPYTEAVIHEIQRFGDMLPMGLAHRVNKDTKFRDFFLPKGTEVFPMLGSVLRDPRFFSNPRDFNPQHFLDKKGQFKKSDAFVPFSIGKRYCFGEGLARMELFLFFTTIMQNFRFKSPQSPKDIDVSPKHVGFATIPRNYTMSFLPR
Procedure: Inhibitory effect of plant extracts, fractions, subfractions and constituents was determined by inhibition assay on CYP2A6- and CYP2A13-mediated coumarin 7-hydroxylation. The recombinant human CYP2A6, CYP2A13 and rat NADPH-dependent cytochrome P450 oxidoreductase (CYPOR) proteins were expressed, purified, according to the methods previously described. […] Rate of 7-hydroxycoumarin product formation was measured on spectrofluorometer (Shimadzu, Kyoto, Japan) at λex = 355 nm, λem = 460 nm. Inhibition effects were determined by incubation with extracts, fractions or purified compounds with coumarin substrate in the reaction mixture and calculated as per cent relative inhibition compared with vehicle control reaction[20] and IC50 values were calculated using GraphPad Prism 5 (GraphPad Software Inc., La Jolla, CA).
(§1) MBI requires NADPH and time to generate reactive intermediate as inhibitor and ultimately inactivates the enzyme. MBI was evaluated by pre-incubation with each test inhibitor in the reaction at different time periods (0, 10, 20 and 30 min) in the presence of NADPH for time-dependent assay, as described. The apparent inactivation constants, KI and Kinact, were obtained from double reciprocal plots of kobs versus inhibitor concentrations by linear regression analysis on GraphPad Prism 5. Methoxsalen was used as a control mechanism-based inhibitor for time- and NADPH-dependent inhibition assays.

[2] = target: T2, CYP2A6 (Homo sapiens, UniProt P11509); design: made in house; conditions: ref Prasopthum et al., 2015, cited from earlier work; for Ki: coumarin 0–40 µM
T2 sequence (P11509 1-494): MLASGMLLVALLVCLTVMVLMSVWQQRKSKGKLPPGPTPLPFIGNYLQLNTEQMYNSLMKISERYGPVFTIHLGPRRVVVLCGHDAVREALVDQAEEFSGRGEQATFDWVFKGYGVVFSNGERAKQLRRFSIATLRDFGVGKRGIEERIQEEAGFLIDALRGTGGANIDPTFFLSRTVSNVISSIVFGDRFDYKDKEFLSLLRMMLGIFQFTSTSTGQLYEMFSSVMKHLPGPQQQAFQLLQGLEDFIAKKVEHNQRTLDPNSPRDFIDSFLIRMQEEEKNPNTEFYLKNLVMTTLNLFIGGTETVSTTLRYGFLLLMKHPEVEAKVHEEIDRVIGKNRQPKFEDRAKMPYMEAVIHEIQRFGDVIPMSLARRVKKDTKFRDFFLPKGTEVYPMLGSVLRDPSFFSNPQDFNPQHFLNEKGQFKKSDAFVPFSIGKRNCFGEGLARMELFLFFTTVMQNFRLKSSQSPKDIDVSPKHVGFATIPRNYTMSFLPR

[3] = target: T1, CYP2A13; test: Mechanism-based (time- and NADPH-dependent) inactivation of CYP2A13; type: biochemical; conditions: for kinact / KI (inactivation): pre-incubation 0-30 min with NADPH; for KI (inactivation): read-out: CYP2A13 KI (inactivation constant)
Procedure: as §1

[4] = target: T1, CYP2A13; test: Effects of trapping agents and dialysis on inactivation of CYP2A13; type: biochemical; conditions: CYP2A13 inhibition reaction mixture, probe coumarin; for activity at 10 µM: compound 10 µM; for activity at 20 µM: compound 20 µM
Procedure: as §1
To explore whether inactivation of CYP2As by thiophenes 9–11 and of CYP2A13 by hirsutinolides 5-8 could be reversed, the removal of reversible inhibitory compounds by dialysis and addition of trapping agents (GSH, semicarbazide, catalase or potassium ferricyanide) in the inhibition reaction mixture were performed. […] Similarly, mechanism-based inactivation of both CYP2A6 and CYP2A13 by thiophenes 9–11 could not be reversed (Table 3).

[5] = target: T2, CYP2A6; conditions: cited from earlier work
[6] = 10-min pre-incubation in the presence of NADPH, read-out: IC50 CYP2A13 Pre-incubation
[7] = coincubation, coumarin 2 µM, read-out: IC50 CYP2A13 Coincubation
[8] = read-out: Per cent remaining activity, 70 μM K3Fe(CN)6
[9] = read-out: Per cent remaining activity, 2 mM GSH
[10] = read-out: Per cent remaining activity, 5 mM semicarbazide
[11] = read-out: Per cent remaining activity, 2000 U catalase
[12] = read-out: Per cent remaining activity, Dialysis (+) NADPH
[13] = read-out: Per cent remaining activity, Dialysis (−) NADPH
[14] = read-out: Per cent remaining activity, Pre-incubation
[15] = read-out: CYP2A6 KI (inactivation constant), ref Prasopthum et al., 2015
[16] = 10-min pre-incubation in the presence of NADPH, read-out: IC50 CYP2A6 Pre-incubation
[17] = coincubation, coumarin 2 µM, read-out: IC50 CYP2A6 Coincubation
[18] = read-out: inactivation kinetic values (KI) against CYP2A6, literature values

Compound	CYP2A13 Mode of inhibition [1]	IC50 [1, 6]	IC50 [1, 7]	Ki [1]	CYP2A6 Mode of inhibition [2]	kinact [3]	KI (inactivation) [3]	KI (inactivation) [5, 15]	CYP2A6 Kinact ([5]; ref Prasopthum et al., 2015)	IC50 [2, 16]	IC50 [2, 17]	Ki [2]	also measured
O=c1cc(-c2ccc(O)cc2)oc2cc(O)cc(O)c12 [Apigenin 1, apigenin]	Mixed type	0.04 ± 0.01 µM	0.05 ± 0.01 µM	0.014 ± 0.002 µM	Mixed type^b								
C=C(C)C(=O)OC1CC(C)C2(O)CCC(C)(/C=C3/OC(=O)C(COC(C)=O)=C31)O2 (stereo not drawn) [Hirsutinolide 5, 8α-(2-methylacryloyloxy)-hirsutinolide-13-O-acetate]	Mixed type	4.5 ± 0.18 µM	16.4 ± 3.1 µM	5.61 ± 0.99 µM	Mixed type^b	0.0005 s⁻¹	0.92 ± 0.17 µM	7.45 ± 0.62 µM	0.05 ± 0.01^b	8.64 ± 0.37 µM	22.3 ± 2.5 µM	15.1 ± 2.1 µM	activity at 10 µM [4, 8]: 24.1 ± 0.62%; activity at 10 µM [4, 9]: 28.2 ± 6.54%; activity at 10 µM [4, 10]: 24.4 ± 2.54%; activity at 10 µM [4, 11]: 20.3 ± 6.24%; activity at 10 µM [4, 12]: 18.6 ± 0.94%; activity at 10 µM [4, 13]: 86 ± 6.65%; activity at 10 µM [4, 14]: 29.3 ± 2.53%
C=C(CO)C(=O)OC1CC(C)C2(O)CCC(C)(/C=C3/OC(=O)C(COC(C)=O)=C31)O2 (stereo not drawn) [Hirsutinolide 7, 8α-(4-hydroxymethacryloyloxy)-hirsutinolide-13-O-acetate]	Mixed type	10.5 ± 0.49 µM	23.3 ± 1.35 µM	12.6 ± 1.26 µM	Mixed type^b	0.001 s⁻¹	8.67 ± 0.15 µM	5.32 ± 0.29 µM	0.03 ± 0.01^b	6.8 ± 0.77 µM	32.7 ± 2.2 µM	20.4 ± 5.4 µM	KI, CYP2A13 (in Figure 2) ([3]; time- and concentration-dependent inactivation): 8.67 ± 0.15; activity at 10 µM [4, 8]: 21.4 ± 2.75%; activity at 10 µM [4, 9]: 18.3 ± 1.54%; activity at 10 µM [4, 10]: 26.6 ± 1.25%; activity at 10 µM [4, 11]: 20.9 ± 5.18%; activity at 10 µM [4, 12]: 21.4 ± 4.45%; activity at 10 µM [4, 13]: 93.3 ± 2.1%; activity at 10 µM [4, 14]: 22.2 ± 1.88%
CC(=O)OCC1=C2/C(=C\C3(C)CCC(O)(O3)C(C)CC2OC(=O)/C(C)=C/CO)OC1=O (stereo not drawn) [Hirsutinolide 8, 8α-(4-hydroxytigloyloxy)-hirsutinolide-13-O-acetate]	Mixed type	15.9 ± 0.67 µM	36.1 ± 1.39 µM	15.8 ± 2.5 µM	Mixed type^b	0.00167 s⁻¹	8.62 ± 0.37 µM	7.64 ± 1.24 µM	0.09 ± 0.01^b	13.1 ± 2.4 µM	64.5 ± 5.8 µM	42.3 ± 8.4 µM	activity at 20 µM [4, 8]: 21.8 ± 1.85%; activity at 20 µM [4, 9]: 25.8 ± 4.2%; activity at 20 µM [4, 10]: 20.7 ± 2.92%; activity at 20 µM [4, 11]: 19.4 ± 1.39%; activity at 20 µM [4, 12]: 18.4 ± 1.1%; activity at 20 µM [4, 13]: 92.4 ± 4.03%; activity at 20 µM [4, 14]: 23.9 ± 3.17%
O=c1c(O)c(-c2ccc(O)c(O)c2)oc2cc(O)cc(O)c12 [Quercetin 4, quercetin]	Competitive	0.74 ± 0.02 µM	0.8 ± 0.01 µM	0.11 ± 0.01 µM	Competitive^b								
C/C=C(/C)C(=O)O[C@H]1Cc2cc3ccc(=O)oc3cc2OC1(C)C [decursinol angelate, reference compound]													KI (inactivation) [5, 18]: 2.42 µM
C#CCN(C)[C@H](C)Cc1ccccc1 [selegiline, reference compound]													KI (inactivation) [5, 18]: 15.6 µM
